Experimental data from patent publication US10227324B2 (Shanghai Haiyan Pharmaceutical Technology Co., Ltd., priority 2014, dated 2019).

How the values were obtained:
T47D cells = test: Cell inhibitory activity detected by MTT assay, T47D; type: cell-based; conditions: Homo sapiens, T47D, 72 h, read-out: T47D cell (IC50/nM), cell growth inhibition
[1] = Metabolism stability assay in liver microsomes; type: in vitro ADME, mouse; conditions: liver microsomal metabolism in mice
Experimental: Buffer A: 1 L solution of 100 mM potassium dihydrogen phosphate containing 1 mM EDTA (Sigma, V900157-100G) was prepared. Buffer B: 1 L solution of 100 mM dipotassium hydrogen phosphate containing 1 mM EDTA was prepared. Buffer C: 700 mL of buffer B was taken out and titrated with buffer A to pH 7.4.
2.1 10 μl of 10 mM compound to be tested and 10 μl of 10 mM ketanserin were taken out and 190 μl of pure acetonitrile was added to each of them to prepare 500 μM compound to be tested and ketanserin, respectively.
2.2 20 μl (20 mg/mL) of liver microsomes (XENOTECH, H0610) stock solution was added to 513.4 μl of buffer C on wet ice. 0.75 mg/mL liver microsomal solution was obtained.
2.3 1.5 μl of each of the above-mentioned compound to be tested and ketanserin solution was added to 498.5 μl of liver microsomal solution (0.7 5 mg/mL) respectively on wet ice. 1.5 μM mixed solution of compound to be tested and 1.5 μM mixed solution of ketanserin were obtained.
2.4 At the time points 0, 5, 15, 30, 45, and 60 min, 30 μl of the mixed solution of compound to be tested and 30 μl of the mixed solution of ketanserin were dispensed into the reaction plate on wet ice, respectively.
2.5 5 mg reduced coenzyme II (Roche, 10621706001) was weighed and dissolved in 1 mL of buffer C. 6 mM reduced coenzyme II solution was obtained. The reduced coenzyme II solution was dispensed into the reaction plate.
2.6 Imipramine was dissolved to give a 10 mM solution. 10 μl imipramine solution was added to 100 mL of blank acetonitrile to generate the internal reference.
2.7 At 0 min, 135 μL of iced acetonitrile (Merck, UN 1648) containing the internal reference was added to each well and then 15 μL of buffer C was added.
2.8 The reaction plate was placed into a 37° C. water bath incubator for 5 min. In the reaction plate, 15 μL of reduced coenzyme II solution was added to each well to initiate the reaction, and the time keeping was started. At the time points of 5, 15, 30, 45, and 60 min, 135 μL of iced acetonitrile containing the internal reference was added to each well to terminate the reaction.
2.9 The reaction plate was sealed with an aluminum film, placed on a vibration mixer and shaken at 500 rpm for 5 min. The plate was then centrifuged in a centrifuge at 3750 rp for 15 min.
2.10 The sample was diluted with pure water in accordance with the ratio of 1:1 and detected by LC/MS.
Half-life: 0.693/K (the slope by plotting based on the incubation time and logarithm of the concentration value)
Clearance ratio: (0.693/half-life)*(1/protein concentration (0.5 mg/mL))*(proportional factor)
Wherein, the K value and the proportional factor were calculated by those skilled in the art according to the methods described in the prior art and contained in the instructions of the liver microsome product.

[2] = tested on: Akt phosphorylation (Ser473-p-Akt) in PC-3 cells; test: Inhibition of p-Akt phosphorylation level in PC-3 cells (cell level fluorescence imaging); type: cell-based; conditions: Homo sapiens; Akt phosphorylation in PC-3 cells, 2 hours incubation; read-out: PC-3 cell (IC50/nM)
Method in brief: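 Inhibition was computed from p-Akt(Ser473) immunofluorescence scaled to DMSO-treated wells (full signal) and 10 μM BEZ235 wells (background). Cells were treated for 2 h with an 8-point, 3-fold series from 0.0046 to 10 μM in duplicate before fixation, antibody staining with PI counterstain, and plate imaging.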

Structure (SMILES): CC(C)(c1cc(-c2cnc(N)nc2C(F)(F)F)nc(N2CCOCC2)n1)S(C)(=O)=O [Compound S-45]
- IC50 (T47D cells): 163 nM
- Clearance ratio (mL/min/kg) mouse [1]: 89.54 mL/min/kg
- IC50 [2]: 156 nM
